Test results as given in patent publication US20230348426A1, “OXOPYRROLIDINE FPR2 AGONISTS” (Bristol-Myers Squibb Company, priority 2020, published 2023).

Assays:
human FPR2 = human FPR2 (Homo sapiens (Human), UniProt P25090); assay: FPR2 cyclic adenosine monophosphate (cAMP) assay; type: cell-based; settings: CHO cells overexpressing human FPR2; forskolin 5 µM; inhibition of cAMP production; read-out: hFPR2 cAMP2 EC50
Outline: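 Inhibition of forskolin-driven (5 µM) cAMP, with 200 µM IBMX, measured in human FPR2-expressing CHO cells, 2,000 per well, 30 min at room temperature; compounds tested 0.020 nM to 100 µM in 1% DMSO. HTRF 665/590 ratio converted to cAMP via calibration curve, then 4-parameter fit.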

human FPR1 = human FPR1 (Homo sapiens (Human), UniProt P21462); assay: FPR1 cyclic adenosine monophosphate (cAMP) assay; type: cell-based; settings: CHO cells overexpressing human FPR1; forskolin 10 µM; inhibition of cAMP production; read-out: hFPR1 cAMP EC50
Outline: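 Human FPR1-expressing CHO cells were used at 4,000 per well, with compound at 0.020 nM–100 µM in 1% DMSO. Potency came from a 4-parameter logistic fit.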

Sequence of human FPR1 (P21462 whole entry): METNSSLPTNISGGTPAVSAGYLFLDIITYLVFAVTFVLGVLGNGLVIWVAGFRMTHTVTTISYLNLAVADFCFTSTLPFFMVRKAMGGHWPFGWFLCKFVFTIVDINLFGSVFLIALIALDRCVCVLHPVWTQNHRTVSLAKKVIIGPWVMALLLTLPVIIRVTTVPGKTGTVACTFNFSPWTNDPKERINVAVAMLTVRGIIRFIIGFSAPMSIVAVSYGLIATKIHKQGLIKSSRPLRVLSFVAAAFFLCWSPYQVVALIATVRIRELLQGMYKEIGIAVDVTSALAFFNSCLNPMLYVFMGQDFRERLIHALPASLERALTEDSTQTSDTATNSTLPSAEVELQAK
Sequence of human FPR2 (P25090 whole entry): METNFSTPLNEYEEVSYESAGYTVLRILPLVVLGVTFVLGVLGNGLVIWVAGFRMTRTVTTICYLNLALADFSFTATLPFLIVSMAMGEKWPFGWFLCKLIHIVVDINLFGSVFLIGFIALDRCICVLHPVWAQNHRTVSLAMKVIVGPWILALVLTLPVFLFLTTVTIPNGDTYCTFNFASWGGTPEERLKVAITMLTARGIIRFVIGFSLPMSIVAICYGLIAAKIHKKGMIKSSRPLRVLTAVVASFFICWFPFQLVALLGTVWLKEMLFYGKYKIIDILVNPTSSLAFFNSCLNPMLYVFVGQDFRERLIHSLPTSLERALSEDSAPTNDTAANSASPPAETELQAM

SMILES | EC50 (human FPR2) [nM] | EC50 (human FPR1) [nM]
COc1cc(F)c([C@@H]2CN(c3c(C)ccn(C)c3=O)C(=O)[C@H]2NC(=O)c2ccc(OC(F)F)cc2)c(F)c1 [Example 310] | 10 | 67
COc1cc(F)c([C@@H]2CN(c3c(C(F)(F)F)ccn(C)c3=O)C(=O)[C@H]2NC(=O)c2ccc(OC(F)F)cc2)c(F)c1 [Example 311] | 10 | 1900
COc1ccc([C@@H]2CN(c3c(C)ccn(CC4CC4)c3=O)C(=O)[C@H]2NC(=O)c2ccc(OC(F)(F)F)cc2)c(F)c1 [Example 312] | 10 | 0.5
COc1cc(F)c([C@@H]2CN(c3nc(C(C)(C)O)ccc3F)C(=O)[C@H]2NC(=O)c2ccc(Cl)cc2)c(F)c1 [Example 313] | 10 | 5400
COc1cc(F)c([C@@H]2CN(c3c(C)ccn(CC(OC)C(F)(F)F)c3=O)C(=O)[C@H]2NC(=O)c2ccc(OC(F)F)cc2)c(F)c1 (some centres unmarked) [Example 314] | 10 | 0.4
COCC(CO)n1cccc(N2C[C@@H](c3ccc(OC)cc3)[C@H](NC(=O)c3ccc(OC(F)F)cc3)C2=O)c1=O (some centres unmarked) [Example 315] | 10 | 9.6
COc1cc(F)c([C@@H]2CN(c3nc(C4CCOCC4)ccc3F)C(=O)[C@H]2NC(=O)c2ccc(OC(F)F)cc2)c(F)c1 [Example 316] | 10 | 95
COCC(C(=O)N(C)C)n1cccc(N2C[C@@H](c3ccc(Cl)cc3)[C@H](NC(=O)c3ccc(OC(F)F)cc3)C2=O)c1=O (some centres unmarked) [Example 317] | 10 | 2.6
COc1cc(F)c([C@@H]2CN(c3nc(N4C[C@@H](C)N(C)[C@@H](C)C4)ccc3C#N)C(=O)[C@H]2NC(=O)c2ccc(Cl)cc2)c(F)c1 [Example 318] | 10 | > 10000
CCn1cccc(N2C[C@@H](c3c(F)cc(OC)cc3F)[C@H](NC(=O)c3ccc(C#N)cc3)C2=O)c1=O [Example 319] | 10 | 200
COc1cc(F)c([C@@H]2CN(c3cccn(C4CCOC4)c3=O)C(=O)[C@H]2NC(=O)c2ccc(OC(F)F)cc2)c(F)c1 (some centres unmarked) [Example 320] | 10 | 44
COc1cc(F)c([C@@H]2CN(c3cccn(CC(F)F)c3=O)C(=O)[C@H]2NC(=O)c2ccc(C#N)cc2)c(F)c1 [Example 321] | 10 | 570
COCCn1cc(F)cc(N2C[C@@H](c3c(F)cc(OC)cc3F)[C@H](NC(=O)c3ccc(OC(F)(F)F)cc3)C2=O)c1=O [Example 322] | 10 | 97
COc1cc(F)c([C@@H]2CN(c3cc(NC(C)=O)cn(C)c3=O)C(=O)[C@H]2NC(=O)c2ccc(OC(F)F)cc2)c(F)c1 [Example 323] | 11 | 750
COc1cc(F)c([C@@H]2CN(c3ccc(C)n(C)c3=O)C(=O)[C@H]2NC(=O)c2ccc(OC(F)F)cc2)c(F)c1 [Example 324] | 11 | 130
COCC(CO)n1ccc(C)c(N2C[C@@H](c3c(F)cc(OC)cc3F)[C@H](NC(=O)c3ccc(OC(F)(F)F)cc3)C2=O)c1=O (some centres unmarked) [Example 325] | 11 | 1.6
COc1cc(F)c([C@@H]2CN(c3nc(N4CCC(O)C4=O)ccc3F)C(=O)[C@H]2NC(=O)c2ccc(OC(F)(F)F)cc2)c(F)c1 (some centres unmarked) [Example 326] | 11 | 35
COc1cc(F)c([C@@H]2CN(c3nccc(NC4COC4)c3C(F)(F)F)C(=O)[C@H]2NC(=O)c2ccc(Cl)cc2)c(F)c1 [Example 327] | 12 | 1700
COc1cc(F)c([C@@H]2CN(c3nc(N4C[C@@H]5C[C@H]4CN5C)ccc3OC)C(=O)[C@H]2NC(=O)c2ccc(OC(F)F)cc2)c(F)c1 [Example 328] | 12 | 610
COc1cc(F)c([C@@H]2CN(c3cc(C#N)cn(C)c3=O)C(=O)[C@H]2NC(=O)c2ccc(OC(F)F)cc2)c(F)c1 [Example 330] | 13 | 3700
COc1cc(F)c([C@@H]2CN(c3nc(N4C[C@@H](C)N(C)[C@@H](C)C4)ccc3C#N)C(=O)[C@H]2NC(=O)c2ccc(OC(F)F)cc2)c(F)c1 [Example 332] | 13 | 5800
COc1cc(F)c([C@@H]2CN(c3nc(N4CCN(C)CC4)ccc3C(F)F)C(=O)[C@H]2NC(=O)c2ccc(Cl)cc2)c(F)c1 [Example 333] | 14 | 5700
COc1cc(F)c([C@@H]2CN(c3nccc(N4C[C@@H]5C[C@H]4CN5C)c3C(F)(F)F)C(=O)[C@H]2NC(=O)c2ccc(Cl)cc2)c(F)c1 [Example 334] | 14 | 480
COc1cc(F)c([C@@H]2CN(C3CCC3)C(=O)[C@H]2NC(=O)c2ccc(OC(F)(F)F)cc2)c(F)c1 [Example 335] | 15 | 450
COCCn1c(C)ccc(N2C[C@@H](c3c(F)cc(OC)cc3F)[C@H](NC(=O)c3ccc(OC(F)F)cc3)C2=O)c1=O [Example 336] | 17 | 60
COc1cc(F)c([C@@H]2CN(c3c(C(F)(F)F)ccn(C)c3=O)C(=O)[C@H]2NC(=O)c2ccc(Cl)cc2)c(F)c1 [Example 337] | 17 | 4300
COCCn1ccc(C)c(N2C[C@@H](c3ccc(Cl)cc3)[C@H](NC(=O)c3ccc(OC(F)(F)F)cc3)C2=O)c1=O [Example 339] | 23 | 0.6
COCCn1ccc(C)c(N2C[C@@H](c3ccc(Cl)cc3)[C@H](NC(=O)c3ccc(OC(F)F)cc3)C2=O)c1=O [Example 340] | 23 | 1.1
COc1cc(F)c([C@@H]2CN(c3c(F)cccc3C#N)C(=O)[C@H]2NC(=O)c2ccc(Cl)cc2)c(F)c1 [Example 341] | 23 | 4100

The remaining compounds from weak to strong by EC50 (human FPR2), led by results:

EC50 (human FPR2) [nM] | EC50 (human FPR1) [nM] | SMILES
10 | 22 | COCCn1cccc(N2C[C@@H](c3c(F)cc(OC)cc3F)[C@H](NC(=O)c3ccc(OC(F)(F)F)cc3)C2=O)c1=O [Example 302]
9.9 | 1.8 | COCC(CO)n1cccc(N2C[C@@H](c3ccc(Cl)cc3)[C@H](NC(=O)c3ccc(OC(F)F)cc3)C2=O)c1=O (some centres unmarked) [Example 307]
9.9 | 180 | COc1cc(F)c([C@@H]2CN(c3cccn(CC(C)(C)O)c3=O)C(=O)[C@H]2NC(=O)c2ccc(OC(F)F)cc2)c(F)c1 [Example 308]
9.8 | 250 | COc1cc(F)c([C@@H]2CN(c3cccn(CCN4CCS(=O)(=O)CC4)c3=O)C(=O)[C@H]2NC(=O)c2ccc(OC(F)F)cc2)c(F)c1 [Example 306]
9.6 | 390 | COc1cc(F)c([C@@H]2CN(c3nc(N4CCN(C)CC4)ccc3OC)C(=O)[C@H]2NC(=O)c2ccc(OC(F)F)cc2)c(F)c1 [Example 303]
9.6 | 90 | COc1cc(F)c([C@@H]2CN(c3cccn(C4COC4)c3=O)C(=O)[C@H]2NC(=O)c2ccc(OC(F)F)cc2)c(F)c1 [Example 304]
9.6 | 1300 | COc1cc(F)c([C@@H]2CN(c3cccnc3P(C)(C)=O)C(=O)[C@H]2NC(=O)c2ccc(Cl)cc2)c(F)c1 [Example 305]
9.3 | 360 | COc1cc(F)c([C@@H]2CN(c3cccnn3)C(=O)[C@H]2NC(=O)c2ccc(OC(F)F)cc2)c(F)c1 [Example 300]
9.3 | 150 | COc1cc(F)c([C@H]2[C@H](NC(=O)c3ccc(OC(F)(F)F)cc3)C(=O)N(c3cccn(CCO)c3=O)[C@H]2C)c(F)c1 [Example 301]
9.2 | 1900 | COc1cc(F)c([C@@H]2CN(c3cc(NC(C)=O)cn(C)c3=O)C(=O)[C@H]2NC(=O)c2ccc(Cl)cc2)c(F)c1 [Example 299]
9 | 0.1 | COc1cc(F)c([C@@H]2CN(c3c(C)ccn(CC(OC)C(F)(F)F)c3=O)C(=O)[C@H]2NC(=O)c2ccc(OC(F)(F)F)cc2)c(F)c1 (some centres unmarked) [Example 297]
9 | 8.5 | COc1cc(F)c([C@@H]2CN(c3cccn(C4CCOC4)c3=O)C(=O)[C@H]2NC(=O)c2ccc(OC(F)(F)F)cc2)c(F)c1 (some centres unmarked) [Example 298]
8.9 | 0.6 | COCC(C(=O)N(C)C)n1ccc(C)c(N2C[C@@H](c3ccc(OC)cc3)[C@H](NC(=O)c3ccc(OC(F)F)cc3)C2=O)c1=O (some centres unmarked) [Example 295]
8.8 | 9.1 | COc1cc(F)c([C@@H]2CN(c3c(C)ccn(CC(O)C(F)(F)F)c3=O)C(=O)[C@H]2NC(=O)c2ccc(OC(F)F)cc2)c(F)c1 (some centres unmarked) [Example 294]
8.7 | 6.6 | COc1cc(F)c([C@@H]2CN(c3c(C)ccn(C)c3=O)C(=O)[C@H]2NC(=O)c2ccc(OC(F)(F)F)cc2)c(F)c1 [Example 291]
8.7 | 950 | COCCn1cccc(N2C[C@@H](c3c(F)cc(OC)cc3F)[C@H](NC(=O)c3ccc(C)cc3)C2=O)c1=O [Example 292]
8.7 | 44 | COCC(CO)n1cccc(N2C(=O)[C@@H](NC(=O)c3ccc(OC(F)(F)F)cc3)[C@H](c3c(F)cc(OC)cc3F)[C@@H]2C)c1=O (some centres unmarked) [Example 293]
8.6 | 4600 | COc1cc(F)c([C@@H]2CN(c3nccc(N4CCN(C)CC4)c3C#N)C(=O)[C@H]2NC(=O)c2ccc(Cl)cc2)c(F)c1 [Example 287]
8.6 | 0.8 | COCCn1ccc(C)c(N2C[C@@H](c3ccc(OC)cc3F)[C@H](NC(=O)c3ccc(OC(F)(F)F)cc3)C2=O)c1=O [Example 288]
8.6 | 1800 | CNC(=O)C(C)Nc1ccnc(N2C[C@@H](c3c(F)cc(OC)cc3F)[C@H](NC(=O)c3ccc(Cl)cc3)C2=O)c1C(F)(F)F (some centres unmarked) [Example 290]
